Results taken from PMC3565751, “The Feasibility of Enzyme Targeted Activation for Amino Acid/Dipeptide Monoester Prodrugs of Floxuridine; Cathepsin D as a Potential Targeted Enzym” (Molecules, 2012).

Key:
human cathepsin D = target: T1, human cathepsin D (Homo sapiens, UniProt P07339); experiment: Prodrug stability with human cathepsin D; type: biochemical; conditions: pH 7.4 phosphate buffer, 37 °C, 200 µM substrate
T1 construct: cathepsin B (human liver), and cathepsin D (human liver) were obtained from Sigma Chemical Co; purchased Sigma Chemical Co (St. Louis, MO, USA); host or cells: human liver (tissue-derived)
Source text: (§1) The high expression levels of cathepsins in tumors have been reported. It has been investigated if the protein levels of cathepsin B and D would associate with pathological parameters in order to assess the difference in protein levels of cathepsins as possible tumor biomarkers. Cathepsin B, one of the highest gene expressions in enzymes of Capan-2 cell, is a cysteine endopeptidase and reportedly has similar activity to carboxypeptidase and peptidyl-dipeptidase. On the other hand, cathepsin D has been reported that it preferentially hydrolyzes the peptide bond of bulky hydrophobic amino acids and the peptide bond between Phe-Phe of Bz-Arg-Gly-Phe-Phe-Pro-4MbNA [75, 76, 77]. The metabolic stability of floxuridine prodrugs was assessed using human cathepsin B and D in pH 7.4 phosphate buffer. […] However, the enzyme specificity between cathepsin B and D in prodrug activation for those two prodrugs was not observed.
(§2) Prodrug stability with Cathepsin B and D. Lyophilized enzyme powder was dissolved and adjusted to 2.5 mg/mL of pure enzyme, human cathepsin B and D. The hydrolysis reactions were immediately started by adding substrates (200 µM) in 96-well plates (Corning). The reactions were carried out at 37 °C for 120 min (time points; 0, 5, 10, 30, 60, and 120 min). At each time point, aliquot sample (35 µL) was removed and added to 150 µL of acetonitrile (ACN) with 0.1% TFA. The mixtures were filtered with a 0.45 µm filters at 1,000 × g for 10 min at 4 °C. The filtrate was then analyzed via reverse-phase HPLC.
(§3) The initial rates of hydrolysis were used to obtain the apparent first-order rate constants and estimate the half-lives. The apparent first-order degradation rate constants of various floxuridine prodrugs at 37 °C were determined by plotting the logarithm of prodrug remaining as a function of time. […]
(§4) The concentrations of prodrugs and their metabolites were determined on a Waters HPLC system (Waters, Inc., Milford, MA, USA). […] Standard curves generated for each prodrug and their parent drugs were used for quantitation of integrated area under peaks.

Capan-2 cell homogenate = experiment: Prodrug hydrolysis in Capan-2 cell homogenate with the presence and the absence of selective enzyme inhibitors; type: in vitro ADME; conditions: 37 °C
Procedure: Hydrolysis StudiesPreparation of Capan-2 cell homogenates. Preparation of cell homogenates has been reported previously. Confluent Capan-2 cells (2 plates; 150 mm × 25 mm plate) were rinsed with saline twice. The cells were washed off with 5 mL of pH 7.4 phosphate buffer (10 mmol/L) and the lysed cells by ultrasonication (Micro ultrasonic cell disrupter Model KT40, Kontes, Vineland, NJ, USA) were spun down by centrifugation.
(§5) Preparation of Cytosolic Enzyme Extract. Confluent Caco-2 cells and Capan-2 cells (2 plates; 150 mm × 25 mm plate) were rinsed with saline twice. The cells were washed off with 1 mL of pH 7.4 phosphate buffer (10 mmol/L) and the enzymes were extracted through 30 gauge needle 10 times in ice-cold bath. Cell suspension was spun at 10,000 × g for 2 h at 4 °C and the supernatant was spun at 39,000 × g for 2 h at 4 °C. Protein amount was quantified with the Bio-Rad (Hercules, CA, USA) DC Protein Assay using bovine serum albumin as a standard. The protein amount was adjusted to 500 µg/mL and the hydrolysis reactions were carried out in 96-well plates (Corning). Caco-2 cells and Capan-2 cell suspensions (250 µL) were placed in triplicate wells either presence or absence of various inhibitors, the reactions were started with the addition of substrate (200 µM), and wells were incubated at 37 °C for 120 min (time points; 0, 5, 10, 30, 60, and 120 min). At each time point, aliquot sample (35 µL) was removed and added to 150 µL of acetonitrile (ACN) with 0.1% TFA to prevent the further degradation. The mixtures were filtered with a 0.45 µm filters at 1,000 × g for 10 min at 4 °C. The filtrate wasthen analyzed via reverse-phaseHPLC.
(§6) The initial rates of hydrolysis were used to obtain the apparent first-order rate constants and estimate the half-lives. The apparent first-order degradation rate constants of various floxuridine prodrugs at 37 °C were determined by plotting the logarithm of prodrug remaining as a function of time. The slopes of these plots are related to the rate constant, k, and given by:
k = 2.303 × slope (log C vs. time) (1)
The degradation half-lives were then estimated by the equation: […]
(§7) The concentrations of prodrugs and their metabolites were determined on a Waters HPLC system (Waters, Inc., Milford, MA, USA). The HPLC system consisted of two Waters pumps (model 515), a Waters autosampler (WISP model 712), and a Waters UV detector (996 photodiode array detector). The system was controlled by Waters Millennium 32 software (version 3.0.1). Samples were injected onto a Waters Xterra C18 reverse-phase column (5 µm, 4.6 × 250 mm) equipped with a guard column. The compounds were eluted using gradient method. All prodrugs were run with the solvent B gradient changing 0% to 56% at a rate of 2%/min during a 28-min run. Standard curves generated for each prodrug and their parent drugs were used for quantitation of integrated area under peaks.

[1] = system: Capan-2 cell homogenates and cytosolic enzyme extracts; experiment: Prodrug stability in cytosolic enzyme extract versus whole cell homogenate of Capan-2 cells; type: in vitro ADME
Procedure: In stability studies of test compounds in cell homogenates, the location of enzymes in living cells is not considered and the inaccessible enzymes in vivo condition may be able to degrade those analytes in this in vitro setting. Therefore, the result of prodrug stabilities in cell homogenate may be different to one in vivo, where all enzymes are arranged in all specific locations. The experiments of prodrug activation concerning the location of enzymes in cells were performed at 37 °C in Capan-2 cell homogenates and in cytosolic enzyme extracts. For the comparison purpose, the same experiments were performed at 37 °C in Caco-2 cell homogenates and in cytosolic enzyme extracts. […] The difference between them was minimal (1.4- to 2.5 fold). […] In Capan-2 cells, the stabilities of 5′-O-L-phenylalanyl-L-glycylfloxuridine and 5′-O-L-phenylalanylfloxuridine were improved 7.4- and 7.3-fold, while the ones of 5′-O-L- phenylalanyl-L-tyrosylfloxuridine and 5′-O-L-glycyl-L-leucylfloxuridine were declined 3.9- and 6.0-fold, respectively.
as §5, §6, §7

human cathepsin B = target: T2, human cathepsin B (Homo sapiens, UniProt P07858); experiment: Prodrug stability with human cathepsin B; type: biochemical; conditions: pH 7.4 phosphate buffer, 37 °C, 200 µM substrate
T2 construct: cathepsin B (human liver), and cathepsin D (human liver) were obtained from Sigma Chemical Co; purchased Sigma Chemical Co (St. Louis, MO, USA); host or cells: human liver (tissue-derived)
Source text: as §1, §2, §3, §4

[2] = design: method as in PMID 18719516; conditions: pH 7.4 phosphate buffer; mean ± s.d.; ref [50]; cited from earlier work
Capan-2 cell lines = experiment: Cell proliferation (XTT) assay; type: cell-based; conditions: 4 mmol/L, 4 h drug treatment
Procedure: The percentage of growth inhibition for amino acid/dipeptide monoester prodrugs of floxuridine in Capan-2 cell was evaluated via 2,3-bis[2-methoxy-4-nitro-5-sulfophenyl]-2H-tetrazolium-5-carboxanilideinner salt (XTT) assays (Figure 3). The growth inhibitory effect of tested floxuridine prodrugs after 4 h drug treatment range from 0.0–91.1% at 4 h, 0.0–84.2% at 8 h, and 41.8–84.8% at 24 h in Capan-2 cell lines. […] While specific activation enzymes for 5′-O-L-leucyl-L-glycylfloxuridine and 5′-O-L-phenylalanylfloxuridine have not been identified, those enzymes may be highly localized at the plasma membrane and cytosol. Thus, the activation of those prodrugs took place immediately after translocation of prodrugs into the cells and started inhibiting tumor growth. Leucine and phenylalanine are reportedly good substrates for aminopeptidases and carboxylesterase, respectively.
Cell proliferation studies were conducted with Capan-2 cell lines. The cells were seeded into 96-well plates at […] per well and allowed to attach/grow for 24 h before drug solutions were added. The culture medium (RPMI-1640 + 10% fetal bovine serum) was removed and the cells were gently washed once with sterile pH 6.0 uptake buffer (145 mM NaCl, 0.5 mM MgCl2, 1 mM NaH2PO4, 1 mM CaCl2, 3 mM KCl, 5 mM glucose, and 5 mM MES). Floxuridine prodrugs and floxuridine were diluted in pH 6.0 uptake buffer to 4 mmol/L using no drug as a 100% viability control. The wash buffer was removed and 25 µL drug solution per well were added and incubated at 37 °C for 4 h in the cell incubator. After this time, the drug solutions were removed and the cells were again gently washed twice with sterile uptake buffer. RPMI-1640 was then added to each well after washing. The cells were allowed to recover for 4 h, 8 h, or 24 h before evaluating cell viability via 2,3-bis[2-methoxy-4-nitro-5-sulfophenyl]-2H-tetrazolium-5-carboxanilide inner salt (XTT) assays. […] Absorbance readings at 450 nm were recorded.

T1 sequence (P07339 169-412 limits assumed): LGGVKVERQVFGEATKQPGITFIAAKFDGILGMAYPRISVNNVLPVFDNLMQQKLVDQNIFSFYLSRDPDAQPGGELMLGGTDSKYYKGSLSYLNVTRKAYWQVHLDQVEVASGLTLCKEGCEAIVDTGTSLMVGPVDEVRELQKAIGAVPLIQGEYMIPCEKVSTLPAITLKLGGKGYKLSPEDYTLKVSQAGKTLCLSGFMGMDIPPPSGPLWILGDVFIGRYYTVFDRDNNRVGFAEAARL
T1 sequence (P07339 65-162 limits assumed): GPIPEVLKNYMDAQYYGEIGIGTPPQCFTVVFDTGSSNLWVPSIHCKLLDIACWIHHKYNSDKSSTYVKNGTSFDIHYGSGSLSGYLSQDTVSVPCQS

## N[C@@H](Cc1ccccc1)C(=O)NCC(=O)OC[C@H]1O[C@@H](n2cc(F)c(=O)[nH]c2=O)C[C@@H]1O [5'-O-L-phenylalanyl-L-glycyl-floxuridine]
Human cathepsin D
  Stability (degradation) against cathepsin D compared with absence of enzyme: significant degradation
Capan-2 cell homogenate; Capan-2 cell homogenate with 1,10-phenanthroline, pH 7.4
  Half Life, DPP 3 Inhibitor: 30.1 ± 10.0 min
Capan-2 cell homogenate; Capan-2 cell homogenate with H-Ala-Ala-Phe-CMK CF3CO2H, pH 7.4
  Half Life, TPP 2 Inhibitor: 19.6 ± 0.4 min
Capan-2 cell homogenate; Capan-2 cell homogenate with pepstatin A, pH 7.4
  Half Life, Cathepsin D Inhibitor: 10.2 ± 3.0 min
Capan-2 cell homogenate; Capan-2 cell homogenate with puromycin, pH 7.4
  Half Life, Aminopeptidase Inhibitor: 25.7 ± 0.4 min
Capan-2 cell homogenate; no inhibitor, pH 7.4 phosphate buffer, 200 µM substrate, mean ± s.d.
  Half Life, Capan-2 Cell Homogenate: 4.3 ± 0.9 min
[1]
  Hydrolysis products detected in cell homogenates and cytosolic enzyme extracts: only floxuridine was detected
[1]; 37 °C, pH 7.4 phosphate buffer
  Fold longer half life (stability improved) in cytosolic extract than in Capan-2 cell homogenate: 7.4 fold
Human cathepsin B
  Stability (degradation) against cathepsin B compared with absence of enzyme: significant degradation
[2]
  Half Life, Phosphate Buffer pH 7.4: 132.1 ± 10.2 min
Capan-2 cell lines
  Growth inhibition of cancer cells at 4 h and 8 h: did not exhibit the growth inhibition of cancer cells
